This note sets out measurements from US10463669B2, “Composition for treating or preventing liver cancer” (Seoul National University R&DB Foundation, priority 2016, dated 2019).

Molecules are shown by their SMILES.

Assay [1] has as its system Huh7 cells injected to subcutaneous tissues. Kind of assay: In vivo tumorigenicity analysis (xenograft of pre-treated cells). Also noted: species or system KSN/Slc nude mouse. The protocol: The animal test was carried out according to the protocol which has been approved by Seoul National University Institutional Animal Care and Use Committee (Approval number: SNU-130225-6). The mouse was kept under usual conditions (i.e., semi-specific pathogen-free state), and allowed to have free access to food and water. For all xenografting studies, 5-week old KSN/Slc nude mouse was used. A mouse with bodyweight of 18 g to 20 g was used for the test. For the xenografting analysis, mock-treated 1×10^5 Huh7, 1×10^5 Huh7 treated only with 300 μmol/L H2O2, and 1×10^5 Huh7 treated with both of 25 μmol/L idelalisib and 300 μmol/L H2O2 were washed, harvested in PBS not containing Ca^2+ or Mg^2+, and subsequently injected in an amount of 0.2 mL to subcutaneous tissues. According to caliper measurement of two vertical diameters of a tumor (i.e., D1 as largest diameter and D2 as smallest diameter), the tumor product was monitored every week. The tumor volume was calculated by […].
Next, an examination was made to see whether or not idelalisib can have in vivo inhibition of tumor growth.

Assay [2] concerns TERT expression in HCC cell lines (Huh7 and Hep3B). The experiment in a line: TERT expression, quantitative real time-PCR and immunoblot. The assay is classed as cell-based, human. On the procedure:
(§1) Medium was exchanged every day, and the aforementioned cells were cultured for 4 days in 300 μmol/L hydrogen peroxide (H2O2) (Sigma Aldrich; H1009). In several experiments, the cells were treated for 1 hour with 5 mmol/L N-acetylcysteine (NAC) (Sigma Aldrich; A7250), 25 μmol/L idelalisib (LC Laboratoties, Woburn, Mass., USA; I-7447), 25 μmol/L perifosine (LC Laboratoties, Woburn, Mass., USA; P-6522), or 30 μmol/L GSK3β inhibitor (GSK3β inhibitor XI) (Santa Cruz; sc-204770) (31) before adding H2O2. Furthermore, sterilized distilled water (pH 7.0) was used as a negative control (i.e., mock treatment).
PCR was carried out by using TOPrealm qPCR 2×PreMIX (SYBR Green with high ROX) (Enzynomics, Daejeon, Korea; RT501M) and ABI Prism 7300 thermal cycler (Applied Biosystems, Foster City, Calif., USA). […] To examine the primer specificity, a dissociation step was additionally included.
(§2) Total 2×10^5 cells were boiled for 5 minutes in 2×SDS sample buffer (100 mmol/L TrisHCl [pH 6.8], 4% SDS, 0.2% bromophenol blue, 20% glycerol, and 200 mmol/L β-mercaptoethanol), and then subjected to SDS-PAGE and Western blotting. To detect the TERT, the cells were cultured in 2×SDS sample buffer for 15 minutes at 55° C. TERT-specific (1:300, Rockland Immunochemicals, Gilbertsville, Pa., USA; 600-401-252), AKT-specific (1:1000, Cell Signaling Technology; #9272), phospho-AKT-specific (1:2000, Cell Signaling Technology; #4060), GAPDH-specific (1:2000, Santa Cruz Biotechnology; sc-47724), or β-actin-specific (1:2000, Sigma-Aldrich, St. Louis, Mo., USA; A5441) antibody was diluted in 5% skim milk or bovine serum albumin with TBS-Tween 20, cultured overnight at 4° C., washed, and cultured with HRP-conjugated secondary antibody (1:1000, Abcam; ab131368, or ab131366). By using FUSION-SOLO imager (Vilber Lourmat, Marne La Vallee, France), a chemical fluorescence image was obtained.

For assay [3], the system named is AKT phosphorylation in THLE-3 cells. The experiment in a line: AKT phosphorylation, immunoblot assay. Format: cell-based, human. The protocol: as §1, §2
A general note: Immunoblotting shows a protein as a band on a membrane.

In assay [4] the test system is telomere length in THLE-3 cells. The experiment in a line: Telomere length (immunoFISH, Flow FISH, quantitative PCR). The assay is classed as cell-based, human. The protocol: Flow FISH was carried out as described before (Rufer N, et al., Nat Biotechnol. 1998; 16: 743-7) with few modifications. The cells were washed twice with cold PBS (phosphate-buffered saline) solution containing 0.1% w/v bovine serum albumin (BSA). Subsequently, the cells were re-suspended in hybridization buffer (70% deionized formamide (Amresco, Solon, Ohio, USA), 20 mmol/L TrisHCl [pH 6.8], 1% BSA, and 1 nmol/L FAM-labeled telomere PNA (telomere peptide nucleic acid) probe ([…], Korea), or 1 nmol/L FAM-labeled centromere PNA probe ([…]). Volume of the hybridization buffer was adjusted to 100 μl per 10^5 cells. Next, each sample was cultured for 10 minutes in a water bath at 85° C. […] Total 15,000 to 20,000 nuclei were analyzed for the each separate culture. Telomere fluorescence intensity of the all nuclei at […] phase of the cell cycle was measured by using BD FACS Calibur flow cytometer (Becton Dickinson, Franklin Lakes, N.J., USA) in which CELLQUEST software is used. […] For quantification of the telomere fluorescence intensity, centromere fluorescence intensity, and 8-oxo-dG fluorescence intensity, the same exposure time was employed. The telomere fluorescence level and 8-oxo-dG fluorescence level of tumor tissues were calculated by division of the fluorescence level in non-tumor tissues corresponding to 5 random fields. […]

Another assay has as its system THLE-3 cells. Kind of assay: Cell proliferation / cell viability, MTS assay. Format: cell-based, human. (In general: Formazan colour is commonly taken as a measure of viable cells.)
The mark [5] stands for this setting: THLE-3 cells exposed to 150 μmol/L H2O2.

As to `OO` [H2O2, hydrogen peroxide], the “latency time till tumor development” value in assay [1] (nude mouse injected with 1×10^5 HCC cells treated with H2O2) was found to be 28 days. Moreover, the “TERT expression increased by” value in assay [2] (HCC cells treated with 300 μmol/L H2O2, compared to control HCC cells not exposed to H2O2) was 40%-45%. Also, in assay [3] (THLE-3 cells after H2O2 treatment), the AKT phosphorylation level entry is listed as “no change”. Moreover, the telomere length result in assay [4] (setting [5]) is “reduction”. The “cells that did not survive” value with THLE-3 cells (setting [5]) is 85%.

For `CC[C@H](Nc1ncnc2nc[nH]c12)c1nc2cccc(F)c2c(=O)n1-c1ccccc1` [idelalisib, 5-fluoro-3-phenyl-2-[(1S)-1-(7H-purin-6-ylamino)propyl]-4(3H)-quinazolinone], the “time without tumor formation” value in assay [1] (nude mouse injected with HCC cells treated with both 300 μmol/L H2O2 and 25 μmol/L idelalisib) is greater than 70 days. The “TERT expression reduced by” value in assay [2] (300 μmol/L H2O2-treated HCC cells plus idelalisib, compared to HCC cells treated with H2O2 only) is listed as 65%-70%. For the same compound, the “ROS-mediated increase in the TERT expression” value in assay [2] (H2O2-treated cells) is on record as “almost completely inhibited”. The TERT expression entry in assay [2] (two HCC cell lines, no H2O2) is “reduced”. The “basal level AKT phosphorylation” value in assay [3] (THLE-3, idelalisib at a concentration of 25 μmol/L) is given as “not reduced”. For the same compound, the telomere length entry in assay [4] (THLE-3 cells) is given as “not reduced”. For the same compound, the IC50 (commonly the point on the concentration scale where inhibition reaches its midpoint) in the assay on THLE-3 cells (Homo sapiens, THLE3, MTS assay, treated for 96 hours) was greater than 200 µM.
